Results taken from patent publication US20190060340A1, “NOVEL AMINOGLYCOSIDES AND USES THEREOF IN THE TREATMENT OF GENETIC DISORDERS” (Technion Research & Development Foundation Limited, priority 2007, published 2019).

Legend:
[1] = test system: R3X nonsense mutation of the PCDH15 gene in COS-7 cells; assay: Ex vivo readthrough assay, p2luc-R3X dual luciferase reporter plasmid in COS-7 cells; format: cell-based, monkey
Experimental: For the, suppression of nonsense mutations by novel compounds was tested ex vivo using a dual luciferase reporter plasmid ex vivo readthrough assay. To generate the p2luc plasmid harboring the R3X nonsense mutation of the PCDH15 gene, the following oligonucleotides: 5′-[…]-3′ (SEQ ID NO: 21) and 5′-[…]-3′ (SEQ ID NO: 22) were annealed to each other and inserted into to polylinker sequence of the p2luc vector. The reporter plasmid p2luc-R3X was transfected to cos-7 cells with Lipofectamine 2000 (Invitrogen) and addition of tested compounds was performed 5 hours post transfection. Luciferase activity was determined after 24 hours of incubation, using the Dual Luciferase Reporter Assay System (Promega) and stop codon readthrough was calculated as described previously.

[2] = Cell toxicity of Compound 37; format: cell-based
Acute toxicity in mice = format: in vivo
TGA stop codon = assay: Preliminary tests for in vitro readthrough activity of the TGA stop codon; format: biochemical
[3] = test system: human cytoplasmic A site olygonucleotide model duplexes; assay: UV melting of A site oligonucleotide model duplexes; format: binding
Excerpt: FIG. 7 presents the UV melting profiles observed for the human cytoplasmic A site olygonucleotide model duplexes in the absence of any drug (“No Drug” curve in FIG. 7) and in complex with ribostamycin (“Ribostamycin” curve in FIG. 7), Compound 3 (“NB30” curve in FIG. 7) and Compound 37 (“NB54” curve in FIG. 7) complexes at a drug/duplex ratio of 5:1;

[4] = available toxicity data on aminoglycosides; unit inferred; cited from earlier work
COS-7 (monkey kidney) = assay: Cell toxicity assay (XTT cell proliferation); format: cell-based; conditions: 48 hours
Experimental: (§1) After 1 day the medium was changed to medium without streptomycin and different concentrations of the tested compounds were added. After 48 hours a cell proliferation assay (XTT based colorimetric assay, Biological Industries) was performed, using the 5 hours incubation protocol, according to the manufacturer's instructions. Optical density (OD) was read using an Elisa plate reader. Cell viability was calculated as the ratio between the number of living cells in cultures grown in the presence of the tested compounds, versus the corresponding cell cultures which were grown without the tested compounds.

[5] = test system: HEK-293 (human embryonic kidney); assay: Cell toxicity assay (XTT cell proliferation); format: cell-based; conditions: 48 hours
Experimental: as §1

MDCK (canine kidney) = assay: Cell toxicity assay (XTT cell proliferation); format: cell-based; conditions: 48 hours
Experimental: as §1

[6] = test system: UGA C stop codon (p2LUC plasmid) in COS-7 cells; assay: Ex vivo suppression, p2LUC dual luciferase reporter plasmid in COS-7 cells; format: cell-based, monkey; conditions: 24 hours incubation
Experimental: Recent studies on enhanced production of functional proteins from nonsense codon-containing genes by promoter-activating agents support this presumption. To test this possibility, Compound 3 along with paromomycin and gentamicin, were evaluated for the UGA C stop codon read-through activity in cultured cells using a dual luciferase reporter system.
Suppression of nonsense mutations by Compounds 1-9 was tested ex vivo using a dual luciferase reporter plasmid. The p2LUC plasmid harboring the UGAC mutation was transfected to COS-7 cells with Lipofectamine 2000 (Invitrogen) and addition of tested compounds was performed after 15 hours. Luciferase activity was determined after 24 hours of incubation, using the Dual Luciferase Reporter Assay System (Promega) and stop codon readthrough was calculated as described previously.

Compound: NCC[C@H](O)C(=O)N[C@@H]1CC(N)[C@@H](O[C@H]2OC(CO)[C@@H](O)C(O)C2N)C(O[C@@H]2O[C@H](CN)C(O)C2O)C1O (some centres unmarked) [Compound 37]
- maximum suppression level of the R3X nonsense mutation [1]: 5.25%
- cell toxicity in comparison to paromomycin and gentamicin [2]: significantly reduced
- acute toxicity in mice in comparison to paromomycin and gentamicin (Acute toxicity in mice): significantly reduced
- in vitro readthrough activity of the TGA stop codon vs Compound 3 and paromomycin (TGA stop codon): significantly higher stop codon read-through activity
- affinity to the cytoplasmic A site versus Compound 3 [3]: greater affinity

Compound: NC[C@@H]1O[C@H](O[C@H]2[C@@H](O)[C@H](O[C@@H]3[C@@H](O)[C@H](N)C[C@H](N)[C@H]3O[C@H]3O[C@H](CO)[C@@H](O)[C@H](O)[C@H]3N)O[C@@H]2CO)[C@H](N)[C@@H](O)[C@@H]1O [paromomycin, reference compound]
- LD50 [4]: 160 mg/kg

Compound: gentamicin [reference compound]
- LC50 COS-7 (COS-7 (monkey kidney)): 490 ± 60 µg/mL
- LC50 HEK293 [5]: 700 ± 80 µg/mL
- LC50 MDCK (MDCK (canine kidney)): 510 ± 70 µg/mL
- ex-vivo suppression of nonsense mutation (read-through activity), FIG. 4 [6]: less efficient than either paromomycin or Compound 3

Compound: NC[C@H]1O[C@@H](O[C@@H]2[C@@H](O)[C@H](N)C[C@H](N)[C@H]2O[C@H]2O[C@H](CO)[C@@H](O)[C@H](O)[C@H]2N)[C@H](O)[C@@H]1O [Compound 3]
- ex-vivo suppression of nonsense mutation (read-through activity), FIG. 4 [6]: superior to that of paromomycin and gentamicin at all the tested concentrations
